# Source: patent US20250109127A1, “METHODS OF USE OF PHENOXYPROPYLAMINE COMPOUNDS TO TREAT DEPRESSION” (Minerva Neurosciences, Inc., priority 2013, published 2025)
# Where “and” joins values, the source holds several entries; their conditions need not be identical. Equal values may be shown once. Where a name gives a salt, the structure may show the parent alone.
# Tested on: DOPAC release in the rat prefrontal cortex
# Assay: Microdialysis: DOPAC release in prefrontal cortex after I.P. administration
# Format: in vivo
# Settings: for DOPAC (% of respective basal), individual animal: 0.1 mg/kg I.P., c2-c9 = R#13,14,20,19,25,26,31,32; for DOPAC (% of respective basal), individual animal / DOPAC release, individual animals: hydrochloride; for DOPAC release, MEAN / DOPAC release, individual animals: 3 mg/kg IP; for DOPAC release, MEAN: n = 8; for DOPAC release, individual animals: per animal R#15,16,21,22,27,28,09,10
# Description: The aim of the study was to evaluate, using microdialysis, the effects of an intraperitoneal (I.P.) administration in rats of three different doses of SON-117 on dopamine and its metabolites, serotonin and its metabolite (5-HIAA), and norepinephrine levels in prefrontal cortex.
# Thirty-two adult male Wistar rats were used for the whole study (4 groups of eight animals planned for the study, Table 1).
# Surgery was performed on rats weighing about 300 g at the beginning of the experiments. Rats were anaesthetized with Ketamine (50 mg/kg) & Xylazine (15 mg/kg) by intramuscular administration. The animals were placed in a stereotaxic apparatus in the flat-skull position at a constant setting of −3.3 mm between ear bars and the incisor bar. The animals were treated with a local anesthesic (xylocaine 1%, Astra Zeneca) and an analgesic (Temgesic, from Schering Plough, 0.05 mg/kg, s.c.). A rostrocaudal midline incision was made with a lancet to expose the dorsal skull surface. The “stereotaxic zero” was defined by the Bregma in accordance with Paxinos and Watson's atlas (1986). A hole was drilled in the skull with a drill and the meninges were pierced with a sterile needle to implant a CMA12 guide cannula which later received the dialysis probe.
# Coordinates used for implanting guide cannula in prefrontal cortex from Bregma were anteroposterior 3.7 mm, mediolateral 0.8 mm, and dorsoventral −2 mm (top of the probe was at −5 mm). The guide cannula was fixed to the skull with two stainless steel screws (1.88 mm outside diameter) anchored. An application of dental cement was added. A plastic collar allowed each animal to be tethered to a Swivel assembly of the CMA 120 awake animal system. Following surgery, rats were kept in individual cages and allowed to recover for a minimum of 3-5 days before the experimentation. The rats were handled and put in plastic bowl for 10 min at least every day to habituate the animals to their new environment for the dialysis. An I.P. administration with saline was also performed every day.
# Dialysis probes (CMA12/3 mm, membrane, 20 kD cut-off, Carnegie Medicine, Stockholm, Sweden), were carefully washed before inserting into the guide cannula. The wash was performed with the artificial cerebrospinal fluid (aCSF) medium (NaCl 147 mM, KCl 2.7 mM, CaCl2 1.2 mM, MgCl2 0.85 mM) at room temperature. The dialysis system was then equilibrated at 20° C. at a perfusion rate of 1 μl/min with a Carnegie pump (CMA100). All catheters (FEP tubing, internal volume of 1.2 μl/10 cm, and tubing adaptors) used for microdialysis were treated in the same conditions.
# The probes duly prepared were inserted into the guide cannula and the CMA120 Swivel assembly secured to the animal using a plastic collar. Flow through the dialysis probe with aCSF was maintained at a rate of 1 μl/min during the whole experimentation. The first four fractions (corresponding to 2 hours) were discarded to avoid the effects of parenchymal disturbance and to ensure that an approximate steady-state level was reached. Fractions were then collected over a period of 8.5 h during which time the animals remained quiet. The dialysates were automatically collected with an autosampler (microfraction collector CMA 140, Carnegie Medicin) and stored at −80° C. until analysis. […] Perfusion was then maintained for 7 hours with aCSF. The dialysates (30 μl) were collected into 300 μl vials, transferred into dry ice and then kept frozen (−80° C.) until analysis. Frozen samples were shipped to a partner for analysis. At the end of the microdialysis study, a PBS with colored ink was perfused through the probe in order to visualize the dialyzed area.
# Catecholamine assay: Concentrations of dopamine, DOPAC, HVA, 5-HIAA, 5-HT, and norepinephrin were determined for each sample by HPLC coupled with electrochemical detection.
smiles,measurement,setting,value
"Cc1nnc(-c2cc3c(OC[C@@H](O)CN4CCC(c5ccc(Cl)c(Cl)c5)CC4)cccc3o2)o1 [SON-117, (S)-1-(4-(3,4-dichlorophenyl)piperidino)-3-(2-(5-methyl-1,3,4-oxadiazol-2-yl)benzo(b)furan-4-yloxy)-2-propanol hydrochloride]","DOPAC (% of respective basal), individual animal",T30-T1 h,90.11 % of respective basal and 105.88 % of respective basal and 110.45 % of respective basal and 113.21 % of respective basal and 95.59 % of respective basal and 110.39 % of respective basal and 128.2 % of respective basal and 82.35 % of respective basal
same,"DOPAC (% of respective basal), individual animal",T1 h 30-T2 h,101.64 % of respective basal and 109.71 % of respective basal and 83.87 % of respective basal and 449.73 % of respective basal and 128.96 % of respective basal and 72.88 % of respective basal and 153.26 % of respective basal and 56.49 % of respective basal
same,"DOPAC (% of respective basal), individual animal",T1 h-T1 h 30,79.47 % of respective basal and 158.61 % of respective basal and 92.14 % of respective basal and 126.98 % of respective basal and 119.92 % of respective basal and 119.37 % of respective basal and 135.5 % of respective basal and 66.42 % of respective basal
same,"DOPAC (% of respective basal), individual animal",T2 h 30-T3 h,60.75 % of respective basal and 112.82 % of respective basal and 69.17 % of respective basal and 79.31 % of respective basal and 152.5 % of respective basal and 113.62 % of respective basal and 142.16 % of respective basal and 23.28 % of respective basal
same,"DOPAC (% of respective basal), individual animal",T2 h-T2 h 30,176.59 % of respective basal and 43.90 % of respective basal and 80.18 % of respective basal and 123.61 % of respective basal and 132.53 % of respective basal and 78.83 % of respective basal and 142.03 % of respective basal and 39.56 % of respective basal
same,"DOPAC (% of respective basal), individual animal",T3 h 30-T4 h,53.09 % of respective basal and 116.09 % of respective basal and 68.59 % of respective basal and 73.49 % of respective basal and 180.72 % of respective basal and 107.13 % of respective basal and 128.91 % of respective basal and 40.67 % of respective basal
same,"DOPAC (% of respective basal), individual animal",T3 h-T3 h 30,80.45 % of respective basal and 87.7 % of respective basal and 65.69 % of respective basal and 75.20 % of respective basal and 134.32 % of respective basal and 93.13 % of respective basal and 140.15 % of respective basal and 50.88 % of respective basal
same,"DOPAC (% of respective basal), individual animal",T4 h 30-T5 h,304.57 % of respective basal and 95.87 % of respective basal and 47.53 % of respective basal and 20.13 % of respective basal and 163.90 % of respective basal and 118.96 % of respective basal and 157.11 % of respective basal and 54.52 % of respective basal
same,"DOPAC (% of respective basal), individual animal",T4 h-T4 h 30,345.4 % of respective basal and 109.04 % of respective basal and 79.96 % of respective basal and 110.35 % of respective basal and 164.47 % of respective basal and 110.81 % of respective basal and 148.54 % of respective basal and 71.60 % of respective basal
same,"DOPAC (% of respective basal), individual animal",T5 h 30-T6 h,316.35 % of respective basal and 107.67 % of respective basal and 58.65 % of respective basal and 83.02 % of respective basal and 133.93 % of respective basal and 99.81 % of respective basal and 135.88 % of respective basal and 46.79 % of respective basal
same,"DOPAC (% of respective basal), individual animal",T5 h-T5 h 30,342.56 % of respective basal and 121.60 % of respective basal and 61.68 % of respective basal and 79.4 % of respective basal and 139.09 % of respective basal and 96.46 % of respective basal and 144.84 % of respective basal and 50.64 % of respective basal
same,"DOPAC (% of respective basal), individual animal",T6 h 30-T7 h,344.74 % of respective basal and 120.8 % of respective basal and 139.44 % of respective basal and 80.52 % of respective basal
same,"DOPAC (% of respective basal), individual animal",T6 h-T6 h 30,362.18 % of respective basal and 142.01 % of respective basal and 23.55 % of respective basal and 82.92 % of respective basal and 136.09 % of respective basal and 101.05 % of respective basal and 125.76 % of respective basal and 48.95 % of respective basal
same,"DOPAC release, MEAN",T0-T30 min,87.96 % of respective basal
same,"DOPAC release, MEAN",T30-T1 h,90.03 % of respective basal
same,"DOPAC release, individual animals",T30-T1 h,101.17 % of respective basal and 98.27 % of respective basal and 70.16 % of respective basal and 93.38 % of respective basal and 83.10 % of respective basal and 96.90 % of respective basal and 90.68 % of respective basal and 86.57 % of respective basal
same,"DOPAC release, MEAN",T1 h 30-T2 h,109.73 % of respective basal
same,"DOPAC release, individual animals",T1 h 30-T2 h,148.73 % of respective basal and 196.92 % of respective basal and 78.99 % of respective basal and 114.35 % of respective basal and 65.05 % of respective basal and 98.86 % of respective basal and 85.04 % of respective basal and 87.02 % of respective basal
same,"DOPAC release, MEAN",T1 h-T1 h 30,107.74 % of respective basal
same,"DOPAC release, individual animals",T1 h-T1 h 30,183.03 % of respective basal and 117.43 % of respective basal and 106.09 % of respective basal and 101.67 % of respective basal and 88.00 % of respective basal and 90.78 % of respective basal and 85.51 % of respective basal and 89.44 % of respective basal
same,"DOPAC release, MEAN",T2 h 30-T3 h,92.73 % of respective basal
same,"DOPAC release, individual animals",T2 h 30-T3 h,122.00 % of respective basal and 99.60 % of respective basal and 70.87 % of respective basal and 93.90 % of respective basal and 65.07 % of respective basal and 108.76 % of respective basal and 94.51 % of respective basal and 87.10 % of respective basal
same,"DOPAC release, MEAN",T2 h-T2 h 30,95.46 % of respective basal
same,"DOPAC release, individual animals",T2 h-T2 h 30,111.98 % of respective basal and 121.35 % of respective basal and 63.44 % of respective basal and 89.04 % of respective basal and 75.53 % of respective basal and 92.91 % of respective basal and 122.88 % of respective basal and 86.52 % of respective basal
same,"DOPAC release, MEAN",T3 h 30-T4 h,94.20 % of respective basal
same,"DOPAC release, individual animals",T3 h 30-T4 h,111.27 % of respective basal and 111.84 % of respective basal and 80.10 % of respective basal and 101.37 % of respective basal and 69.94 % of respective basal and 101.03 % of respective basal and 82.44 % of respective basal and 95.58 % of respective basal
same,"DOPAC release, MEAN",T3 h-T3 h 30,102.63 % of respective basal
same,"DOPAC release, individual animals",T3 h-T3 h 30,114.26 % of respective basal and 115.76 % of respective basal and 98.98 % of respective basal and 103.32 % of respective basal and 65.78 % of respective basal and 96.52 % of respective basal and 80.53 % of respective basal and 145.86 % of respective basal
same,"DOPAC release, MEAN",T4 h 30-T5 h,90.86 % of respective basal
same,"DOPAC release, individual animals",T4 h 30-T5 h,99.05 % of respective basal and 111.45 % of respective basal and 86.88 % of respective basal and 84.18 % of respective basal and 65.99 % of respective basal and 114.07 % of respective basal and 88.90 % of respective basal and 76.33 % of respective basal
same,"DOPAC release, MEAN",T4 h-T4 h 30,97.50 % of respective basal
same,"DOPAC release, individual animals",T4 h-T4 h 30,114.70 % of respective basal and 111.85 % of respective basal and 76.78 % of respective basal and 121.97 % of respective basal and 69.65 % of respective basal and 96.91 % of respective basal and 88.65 % of respective basal and 99.52 % of respective basal
same,"DOPAC release, MEAN",T5 h 30-T6 h,93.52 % of respective basal
same,"DOPAC release, individual animals",T5 h 30-T6 h,100.08 % of respective basal and 108.82 % of respective basal and 106.21 % of respective basal and 79.12 % of respective basal and 64.79 % of respective basal and 94.19 % of respective basal and 96.33 % of respective basal and 96.49 % of respective basal
same,"DOPAC release, MEAN",T5 h-T5 h 30,105.66 % of respective basal
same,"DOPAC release, individual animals",T5 h-T5 h 30,96.11 % of respective basal and 118.05 % of respective basal and 106.17 % of respective basal and 90.70 % of respective basal and 68.08 % of respective basal and 136.44 % of respective basal and 128.39 % of respective basal and 101.33 % of respective basal
same,"DOPAC release, MEAN",T6 h 30-T7 h,101.08 % of respective basal
same,"DOPAC release, individual animals",T6 h 30-T7 h,100.91 % of respective basal and 128.07 % of respective basal and 103.29 % of respective basal and 98.33 % of respective basal and 67.98 % of respective basal
same,"DOPAC release, MEAN",T6 h-T6 h 30,97.93 % of respective basal
same,"DOPAC release, individual animals",T6 h-T6 h 30,89.69 % of respective basal and 125.97 % of respective basal and 108.08 % of respective basal and 99.61 % of respective basal and 70.30 % of respective basal and 104.34 % of respective basal and 87.50 % of respective basal
same,"DOPAC release, MEAN",T-30 min-T0 (before administration),94.88 % of respective basal
